Measurements published in US8663934B2, “Cloned transmembrane receptor for 24-hydroxylated vitamin D compounds and uses thereof” (Shriners Hospital for Children, priority 2009, dated 2014).
Entries after “also recorded” stand apart in the source; their conditions may differ.

Legend:
[1] = system: Cyp24a1-deficient mice; assay: Rescue of impaired fracture healing in Cyp24a1-deficient mice (tibial osteotomy); format: in vivo, mouse; conditions: for effect on fracture repair: daily subcutaneous injection, 24,25-(OH)2D3 6.7 μg/kg, 1α,25-(OH)2D3 67 ng/kg
Protocol: FIG. 2: rescue of impaired fracture repair in Cyp24a1-deficient mice by treatment with 24,25-(OH)2D3. Osteotomy was performed and animals from each genotype were treated daily with vehicle, 1,25-(OH)2D3 (67 ng/kg) or 24,25-(OH)2D3 (6.7 ug/kg). The fracture callus was harvested at 14 days post-osteotomy and bone volume (BV) and tissue volume (TV) were measured by histomorphometry using the BioQuant Osteo image analysis software. WT, wild-type; cyp24a1−/−, mutant mice deficient for the Cyp24a1 gene.
A Cyp24a1-deficient mouse strain was used to determine the role of 24-hydroxylated vitamin D compounds during mammalian fracture repair. In wild-type mice, there is a significant increase in local expression of Cyp24a1 mRNA in the tibiae subjected to an osteotomy as compared to the unfractured contralateral tibiae. To identify the role of this change in gene expression on callus formation, four-month-old wild-type and Cyp24a1-deficient mice were subjected to a stabilized, transverse mid-diaphysial fracture of the tibia. Bones were collected at days 14 and 21 post-fracture and analyzed for histology and gene expression.
Control groups were injected with the vehicle (propylene glycol). […] Daily injection with 24,25-(OH)2D3 normalized the histological appearance of the callus and the measured static histomorphometric index (BV/TV, FIG. 2).

[2] = system: chickens; conditions: chick fracture, treatment with metabolite alone; cited from earlier work
[3] = molecular target: T1, 24-hydroxylated vitamin D compound receptor (FAM57B) (Mus musculus, UniProt Q7TNV1); assay: [3H]-24,25(OH)2D3 binding assay on membrane fractions of transfected COS-7 cells; conditions: for displacement of [3H]-24,25(OH)2D3 specific binding by excess cold compound: membrane fractions, excess of nonradioactive competitor; for specific binding of radioligand to receptor (saturation): membrane fractions of COS-7 cells expressing FAM57B
T1 construct: The full-length 24-hydroxylated vitamin D compound receptor was subcloned into the pcDNA3.1 expression vector; expressed in transfected cells; host or cells: COS-7 cells, stably transfected (pcDNA3.1)
T1 sequence (Q7TNV1 1-275 isoform Q7TNV1-3): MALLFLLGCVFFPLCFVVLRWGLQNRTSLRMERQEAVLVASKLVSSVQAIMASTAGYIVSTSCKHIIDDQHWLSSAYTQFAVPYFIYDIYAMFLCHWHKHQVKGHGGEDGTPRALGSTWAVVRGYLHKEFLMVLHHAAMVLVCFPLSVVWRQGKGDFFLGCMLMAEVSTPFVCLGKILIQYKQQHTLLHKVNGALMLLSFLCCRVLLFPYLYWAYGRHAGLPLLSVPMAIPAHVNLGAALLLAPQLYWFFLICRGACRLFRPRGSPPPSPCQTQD
Protocol: Membrane fractions of transfected COS-7 cells are prepared by differential centrifugation (66): cells are homogenized in buffer A (25 mM HEPES, 10 mM NaCl, 1 mM DTT at pH 7.4) and centrifuged at 20,000 g for 10 minutes. The resulting supernatant is then re-centrifuged at 20,000 g for 2×30 minutes. The resulting pellet is resuspended in buffer B (25 mM HEPES, 50 mM NaCl, 5 mM EDTA, 1 mM DTT at pH 7.4) and is used as a membrane fraction for binding assays.
Binding assays are performed on ice for 60 min in buffer B using [^3H]-24R,25(OH)2D3 (50 Ci/mmol; Amersham) in the presence or absence of a 200-fold excess of nonradioactive 24,25(OH)2D3. Bound and free ligand are separated by filtration on glass microfiber filters soaked in buffer B. The filters are rinsed with 10 ml of buffer B and are counted for radioactivity using a scintillation counter (36, 37, 66). Specific binding is then calculated as total binding minus non-specific binding measured in the presence of the excess of nonradioactive ligand.
Saturation binding analysis is performed using 100 μg of membrane fraction and 0.1 to 5 nM of [^3H]-24R,25(OH)2D3 and plotting specific binding as a function of ligand concentration (FIG. 4A). Saturation binding is repeated several times to minimize intra-assay variation and calculate binding affinity with accuracy. Affinity is determined using the saturation binding algorithm of the Prism software (GraphPad Software Inc., LaJolla, Calif.).
Binding specificity is further refined by performing competition binding assays on the membrane fractions with various nonradioactive vitamin D metabolites and other steroids (FIG. 4B). Binding is performed using 1 nM of [^3H]-24R,25(OH)2D3 and 100 μg of membrane fraction. Compete binding is done using 10-200 fold excess of 24,25(OH)2D3 (control displacement curve). Compete binding is also done using 10-200 fold excess of 25(OH)D3, 24S,25(OH)2D3 (the non-natural epimer of 24,25(OH)2D3), 1α(OH)D2, 1α,24(OH)D2, 1,24,25(OH)3D3, as well as dexamethasone, estradiol, and testosterone.

[4] = molecular target: T2, 24-hydroxylated vitamin D compound receptor (Mus musculus, UniProt Q7TNV1); assay: Cellular dielectric spectroscopy (CellKey) in COS7 cells stably transfected with the receptor; format: cell-based; conditions: range of compound concentrations
T2 construct: The full-length 24-hydroxylated vitamin D compound receptor was subcloned into the pcDNA3.1 expression vector; expressed in transfected cells; host or cells: COS-7 cells, stably transfected (pcDNA3.1)
T2 sequence (Q7TNV1 1-275 isoform Q7TNV1-3): T1 sequence (Q7TNV1 1-275 isoform Q7TNV1-3)
Protocol: FIG. 4. Binding saturation and specificity of the 24-hydroxylated vitamin D compound receptor. A, B. The full-length 24-hydroxylated vitamin D compound receptor was subcloned into the pcDNA3.1 expression vector and expressed by stable transfection into COST cells. Membrane fractions were prepared by differential centrifugation and binding assays were performed using [^3H]-24,25(OH)2D3 in the presence or absence of an excess of nonradioactive 24,25(OH)2D3. Bound and free ligand were separated by filtration on glass microfiber filters. […] C, D. COS7 cells stably transfected with an expression vector for the 24-hydroxylated vitamin D compound receptor were plated in a cellular dielectric spectroscopy apparatus and changes in bioimpedance (dZiec), representative of binding, were measured over a range of compound concentrations. C. Response to vitamin D compounds. D. Response to steroids.
In certain embodiments of the present invention, cellular dielectric spectroscopy is used to ascertain binding specificity (124). The technology is based on applying electrical current to cells within a microplate format and measuring changes in impedance. […] The plate is installed onto the system to obtain a baseline reading. […]
Another method used to ascertain binding specificity is cellular dielectric spectroscopy (124). […] The plate is installed onto the system to obtain a baseline reading. […]

[5] = system: ATF response element; assay: ATF response element luciferase reporter (Cignal AARE) in receptor-transfected COS7 cells; format: cell-based; conditions: saturating dose
Protocol: FIG. 5. Activation of the ATF response element following binding of 24,25(OH)2D to the 24-hydroxylated vitamin D compound receptor. COS7 cells stably transfected with an empty expression vector (vector) or with an expression vector for the 24-hydroxyvitamin D compound receptor (24,25(OH)2D rep) were transiently transfected with a reporter construct in which the luciferase reporter is under the control of an ATF response element. Transfected cells were then treated with ethanol (vehicle) or a saturating dose of 24,25(OH)2D. A renilla luciferase constitutive expression vector was co-transfected to assess efficiency of […]. Results (mean±SEM) are expressed as fold-induction over treatment with vehicle.
In certain embodiments of the present invention where the Cignal Finder reporter system is employed, COS-7 cells stably transfected with the 24-hydroxylated vitamin D compound receptor are seeded in 24-well tissue culture plates (Nunc, Roskilde, Denmark) at a density of 20,000 cells per well in growth medium (high-glucose DMEM with HEPES, 10% FBS, and 400 μg/ml of Geneticin). […] The activity of firefly and renilla luciferases are measured sequentially on a Sirius Luminometer (Berthold Detection Systems GmbH, Pforzheim, Germany). The specific luciferase activity is expressed as the ratio of firefly/renilla luciferase activity. […]

[6] = system: wild-type mice; conditions: cited from earlier work
[7] = system: rats; conditions: cited from earlier work
[8] = system: rat; conditions: rat studies; cited from earlier work

C=C1/C(=C\C=C2/CCC[C@]3(C)[C@@H]([C@H](C)CCCC(C)(C)O)CC[C@@H]23)C[C@@H](O)C[C@@H]1O [1α,25-(OH)2D3, reference compound]
effect on fracture repair [1]: no effect
healing (mechanical properties of healed bones) [2]: poor healing

C=C1CC[C@H](O)C/C1=C/C=C1\CCC[C@]2(C)[C@@H]([C@H](C)CC[C@@H](O)C(C)(C)O)CC[C@@H]12 [24,25-(OH)2D3]
type X collagen mRNA expression ([1]; all time points studied): rescued and normalized
histological appearance of the callus ([1]; daily injection 6.7 μg/kg): normalized
static histomorphometric index (BV/TV) ([1]; daily injection 6.7 μg/kg, callus at 14 days post-osteotomy): normalized
effect on fracture repair [1]: rescue; also recorded: corrected
effect on fracture repair ([1]; listed as 24,25(OH)2D3): rescued
displacement of [3H]-24,25(OH)2D3 specific binding by excess cold compound [3]: can be displaced
changes in bioimpedance (dZiec), representative of binding [4]: specifically binds
changes in bioimpedance (dZiec), representative of binding ([4]; listed as 24R,25(OH)2D3): binding activity specific
luciferase reporter fold-induction over treatment with vehicle [5]: statistically significant

CC(=O)[C@H]1CC[C@H]2[C@@H]3CCC4=CC(=O)CC[C@]4(C)[C@H]3CC[C@]12C [progesterone]
displacement of [3H]-24,25(OH)2D3 specific binding by excess cold compound [3]: not

CC(C)NCC(O)COc1cccc2ccccc12 (centres unmarked) [propranolol]
bone mass [6]: increase bone mass
bone defects [7]: repair bone defects

[^3H]-24R,25-(OH)2D3
specific binding of radioligand to receptor (saturation) [3]: specific and saturable
specific binding of radioligand to receptor (saturation) ([3]; listed as [^3H]-24,25(OH)2D3): saturable

B1: parathyroid hormone (protein, UniProt P01270 32-115, looked up)
Parathyroid hormone: SVSEIQLMHNLGKHLNSMERVEWLRKKLQDVHNFVALGAPLAPRDAGSQRPRKKEDNVLVESHEKSLGEADKADVNVLTKAKSQ
modifications: Parathyroid hormone
notes: parathyroid hormone administered in rat fracture studies
fracture repair [8]: improve fracture repair
